Experiments:
α-synuclein fibrils [1] = biological target: T1, α-synuclein fibrils (Homo sapiens, UniProt P37840); assay: Thioflavin T competition assay (Example 130, Table 9), α-synuclein fibrils; format: binding
T1 construct: made in house; host or cells: E. coli BL21(DE3)RIL
Method: (§1) Freshly transformed BL21 colonies were inoculated into 2 L baffled flasks containing 250 ml sterilized TB (1.2% bactotryptone, 2.4% yeast extract, 0.4% glycerol, 0.17 M KH2PO4, 0.72 M K2HPO4) with 50 μg/ml ampicillin, and incubated overnight at 37° C. with shaking.
Competition assays used a fixed concentration of α-syn, Aβ, or tau fibrils (1 μM), consisting of 3 μM, 50 nM and 4 μM of ThioflavinT respectively. […] To optimize the determination of selectivity, assays for all three fibril species were set up in parallel using a common set of intermediate compound dilutions for each analog. Reactions were incubated at room temperature for 1.5 h before quantifying bound ligand as described above for the saturation binding assay. […] All data points were performed in triplicate. Nonspecific fluorescence was measured in parallel reactions containing ThioT plus each concentration of competitor but no fibrils, and these measurements were subtracted from the reactions with fibrils to yield fibril-specific fluorescence. Data were analyzed using Graphpad. Prism software (version 4.0) to obtain EC50 values by fitting the data to the equation Y=bottom+(top-bottom)/(1+10^(x−log EC50)).

α-synuclein fibrils [2] = biological target: T1, α-synuclein fibrils; assay: ThT competitive assay for α-synuclein fibrils (Table 1); format: binding; conditions: for EC50: α-synuclein fibrils
Method: Upon binding to amyloid fibrils, a peak at approximately 440 nm becomes dominant with the fluorescent emission maximum shifted to 480 nm. This is accompanied by a strong enhancement of the fluorescence.
as §1, with “α-Synuclein recombinant protein was produced in E. coli. […] Freshly” for “Freshly”, “250 mL” for “250 ml”
To determine the concentration of fibrils, the reaction mixture (100 μL) was centrifuged at 18,000×g for 10 minutes to separate fibrils from monomer. The α-synuclein monomer and other soluble proteins in the supernatant were removed, and the fibril pellet was resuspended in 100 μL solution of Tris-HCl (20 mM) and NaCl (100 mM). This fibril suspension was used in a bicinchoninic acid (BCA) protein assay along with a bovine serum albumin (BSA) standard curve to determine the concentration of fibrils in the 72 hour fibril reaction mixture.
To prepare the fibrils for performing binding assays, the fibril reaction mixture prepared above was centrifuged at 18,000×g for 10 minutes.
Once the ThT-α-synuclein saturation binding curve and dissociation constant (Kd) were determined the competitive assay for determining the binding affinity of various test compounds was conducted. […] The mixture was incubated at room temperature for 60 minutes on the shaking plate. The fluorescent intensity for each cell was measured by the fluorescence reader at λex and λem. The Ki value for each compound was calculated by the corresponding inhibition curve.
The Ki values were derived from the EC50 values using the Cheng-Prusoff equation: Ki=EC50/(1+[radioligand]/Kd). See FIGS. 17.1-31.2 for the inhibition curves for each compound in the ThioT competitive binding assay.

[3] = average, read-out: α-synuclein EC50 (avg)
[4] = average, read-out: α-synuclein Ki (avg)
[5] = individual determinations, read-out: α-synuclein EC50
[6] = individual determinations, read-out: α-synuclein Ki
[7] = average, read-out: Ki (nM) α-syn (avg)
[8] = individual determinations, read-out: Ki (nM) α-syn
[9] = average, read-out: EC50 (nM) EC50 (avg)
[10] = individual determinations, read-out: EC50 (nM) EC50

SMILES	EC50 (α-synuclein fibrils [1]; [3]) [nM]	Ki (α-synuclein fibrils [1]; [4]) [nM]	EC50 (α-synuclein fibrils [1]; [5]) [nM]	Ki (α-synuclein fibrils [1]; [6]) [nM]	Ki (α-synuclein fibrils [2]; [7]) [nM]	Ki (α-synuclein fibrils [2]; [8]) [nM]	EC50 (α-synuclein fibrils [2]; [9]) [nM]	EC50 (α-synuclein fibrils [2]; [10]) [nM]
COc1ccc2nc(C#Cc3ccnc(OC)c3)ccc2c1 [TZ-36-142]	609	233	609	233	233	233	609	609
COCOc1ccc2nc(/C=C/c3ccnc(OC)c3)ccc2c1 [TZ-36-144]	110	42	110	42	42	42	110	110

From patent publication US10300155B2, “Alpha-synuclein ligands” (Washington University, priority 2015, dated 2019)
